In experiment [1] the test system is Mus musculus. Put plainly: Antiamnesic activity in Swiss albino mouse CPA-induced amnesia model assessed as time taken to enter dark compartment during training session at 3 mg/kg, ip administered 30 mins prior to session by passive avoidance test (reference value: 16.6 +/- 4.1 secs). As to conditions: route intraperitoneal. The class given is functional.
The subject of experiment [2] is Mus musculus. Put plainly: Antiamnesic activity in Swiss albino mouse CPA-induced amnesia model assessed as time taken to enter dark compartment during retention session at 3 mg/kg, ip administered 30 mins prior to session by passive avoidance test (reference value: 61.2 +/- 9.0 secs). As to conditions: route intraperitoneal. The class given is functional.

Our source for the Time values is ChEMBL document CHEMBL3351777, “Further studies on pyrazolo[1',5':1,6]pyrimido[4,5-d]pyridazin-4(3H)-ones as potent and selective human A1 adenosine receptor antagonists” (Eur J Med Chem, 2015).

Turning to `CCCn1c(=O)c2[nH]c(C3CCCC3)nc2n(CCC)c1=O` [1,3-DIPROPYL-8-CYCLOPENTYLXANTHINE [DPCPX]], the Time in experiment [1] is 0.275 min; in experiment [2] it was 1.53 min.
